“And” between values parts separate entries of the source, which are not always exact repeats. Equal entries are not always repeated.
Key:
[1] = biological target: T1, MRAS and other RAS family small GTPase proteins (Homo sapiens, UniProt Q15382); assay: Cellular BRET between CYPA and small GTPases (RIT1, MRAS, RRAS, RRAS2, Rheb); format: cell-based; conditions: RHEB, single replicates
T1 construct: expressed in transfected cells; host or cells: U2OS PPIA-KO

[2] = biological target: T2, MRAS and other RAS family small GTPase proteins (Homo sapiens, UniProt Q92963); assay: as above; format: cell-based; conditions: RIT1, single replicates
T2 construct: expressed in transfected cells; host or cells: U2OS PPIA-KO
T2 sequence (Q92963 whole entry): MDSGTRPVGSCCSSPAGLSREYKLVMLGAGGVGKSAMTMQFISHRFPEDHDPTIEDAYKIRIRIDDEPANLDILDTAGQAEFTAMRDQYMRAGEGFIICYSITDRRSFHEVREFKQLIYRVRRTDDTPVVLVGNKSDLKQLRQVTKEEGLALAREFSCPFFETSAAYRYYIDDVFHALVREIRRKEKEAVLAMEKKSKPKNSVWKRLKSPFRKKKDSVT

[3] = test system: MRAS and other RAS family small GTPase proteins; assay: as above; format: cell-based, human; conditions: cellular BRET with CYPA
[4] = test system: AsPC-1 and NCI-H441 cells; assay: pERK (MSD) and proliferation (CTG) in AsPC-1 and NCI-H441 cells, CYPA inhibitor co-treatment or PPIA KO; format: cell-based, human; conditions: for Proliferation, RMC-7977 with or without CYPA inhibitor (panel title not shown): ASPC1, RMC-7977 alone;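 as to Proliferation inhibition with CYPA inhibitor competition: luminescence as % of CYPA inhibitor-only control with 3 mM sanglifehrin A competitor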

T1 sequence (Q15382 whole entry): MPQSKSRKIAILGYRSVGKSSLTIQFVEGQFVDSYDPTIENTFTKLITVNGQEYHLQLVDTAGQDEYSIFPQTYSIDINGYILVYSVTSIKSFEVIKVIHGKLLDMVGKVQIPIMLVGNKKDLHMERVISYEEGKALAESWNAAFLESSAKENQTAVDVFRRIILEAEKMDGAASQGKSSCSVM

With CCn1c(-c2cc(N3CCN(C4CC4)CC3)cnc2[C@H](C)OC)c2c3cc(ccc31)-c1csc(n1)C[C@H](NC(=O)[C@H]1[C@@H]3COC[C@@H]31)C(=O)N1CCC[C@H](N1)C(=O)OCC(C)(C)C2 [RMC-7977] the “Cellular milliBRET signal between CYPA and small GTPase protein” value ([1]; RMC-7977 123.457 nM) was 1.173 milliBRET and 0.0474 milliBRET and 0.6247 milliBRET and 0.06196 milliBRET and -0.03233 milliBRET and -0.4308 milliBRET, the “Cellular milliBRET signal between CYPA and small GTPase protein” value ([1]; RMC-7977 370.370 nM) was 0.02833 milliBRET and 1.208 milliBRET and -0.3412 milliBRET and 1.195 milliBRET and -0.2334 milliBRET and 1.355 milliBRET and the “Cellular milliBRET signal between CYPA and small GTPase protein” value ([1]; RMC-7977 1111.111 nM) was 0.8505 milliBRET and -0.1562 milliBRET and 0.9686 milliBRET and -0.197 milliBRET and 0.47 milliBRET and 0.6063 milliBRET. For the same compound, the “Cellular milliBRET signal between CYPA and small GTPase protein” value ([2]; RMC-7977 1.524 nM) was -0.09879 milliBRET and 0.3095 milliBRET and 0.2348 milliBRET and 0.5374 milliBRET and 0.06248 milliBRET and 1.089 milliBRET, the “Cellular milliBRET signal between CYPA and small GTPase protein” value ([2]; RMC-7977 4.572 nM) was 1.317 milliBRET and 0.9916 milliBRET and 1.087 milliBRET and 0.9533 milliBRET and 1.62 milliBRET and 0.6301 milliBRET and the “Cellular milliBRET signal between CYPA and small GTPase protein” value ([2]; RMC-7977 13.717 nM) was 2.2977 milliBRET and 1.206 milliBRET and 2.0899 milliBRET and 1.6222 milliBRET and 2.532 milliBRET and 1.262 milliBRET. For the same compound, the “Cellular milliBRET signal between CYPA and small GTPase protein” value ([2]; RMC-7977 41.152 nM) was 3.198 milliBRET and 4.946 milliBRET and 3.114 milliBRET and 5.017 milliBRET and 3.557 milliBRET and 4.376 milliBRET, the “Cellular milliBRET signal between CYPA and small GTPase protein” value ([2]; RMC-7977 123.457 nM) was 3.95 milliBRET and 6.444 milliBRET and 3.939 milliBRET and 6.521 milliBRET and 4.166 milliBRET and 6.383 milliBRET and the “Cellular milliBRET signal between CYPA and small GTPase protein” value ([2]; RMC-7977 370.370 nM) was 5.287 milliBRET and 9.701 milliBRET and 5.757 milliBRET and 9.124 milliBRET and 5.435 milliBRET and 8.897 milliBRET. For the same compound, the “Cellular milliBRET signal between CYPA and small GTPase protein” value ([2]; RMC-7977 1111.111 nM) was 5.773 milliBRET and 8.825 milliBRET and 5.603 milliBRET and 8.649 milliBRET and 4.274 milliBRET and 8.593 milliBRET, the “tri-complex formation potency for KRAS versus MRAS and other RAS family small GTPases” value [3] was “more than tenfold more potent” and the “Proliferation inhibition with CYPA inhibitor competition” value (shortened to “Proliferation inhibition”) ([4]; ASPC1, RMC-7977 0.0152 nM) was 90.9654. For the same compound, the “pERK signal remaining (% of control) with CYPA inhibitor competition” value ([4]; ASPC1, RMC-7977 0.0152 nM) was 120.616 and 135.308 and 125.91 and 115.107, the “Proliferation inhibition” value ([4]; ASPC1, RMC-7977 0.0457 nM) was 85.8573 and the “pERK signal remaining (% of control) with CYPA inhibitor competition” value ([4]; ASPC1, RMC-7977 0.0457 nM) was 139.301 and 149.714 and 121.136 and 102.253. For the same compound, the “Proliferation inhibition” value ([4]; ASPC1, RMC-7977 0.41 nM) was 72.6185 and 81.3976, the “pERK signal remaining (% of control) with CYPA inhibitor competition” value ([4]; ASPC1, RMC-7977 0.41 nM) was 110.343 and 126.372 and 94.9104 and 97.1292 and the “Proliferation inhibition” value ([4]; ASPC1, RMC-7977 3.70 nM) was 35.3653 and 35.6028. The “Proliferation inhibition” value ([4]; ASPC1, RMC-7977 11.11 nM) was 15.7797 and 21.3117, the “Proliferation inhibition” value ([4]; ASPC1, RMC-7977 33.33 nM) was 8.746 and 8.58 and the “Proliferation inhibition” value ([4]; ASPC1, RMC-7977 100.00 nM) was 4.002 and 7.934. The “Proliferation, RMC-7977 with or without CYPA inhibitor (panel title not shown)” value ([4]; 0.0152 nM, 15.2 pM) was 91.3484, the “Proliferation, RMC-7977 with or without CYPA inhibitor (panel title not shown)” value ([4]; 0.0457 nM, 45.7 pM) was 92.4729 and the “Proliferation, RMC-7977 with or without CYPA inhibitor (panel title not shown)” value ([4]; 0.41 nM, 0.00041 µM) was 80.9316. The “Proliferation, RMC-7977 with or without CYPA inhibitor (panel title not shown)” value ([4]; 3.70 nM, 0.0037 µM) was 50.3479.
